{"source": "paper PMC2994263", "about": "(Chemical biology & drug design, 2010)", "key": {"[1]": {"system": "AT1 receptor", "conditions": "AT1 cDNA transfected HEK-293 cells; ref [10]; cited from earlier work"}, "[2]": {"system": "AT1 receptor", "assay": "Phosphoinositide", "assay_type": "cell-based, human"}, "[3]": {"system": "AT1 receptor", "assay": "Calcium mobilization in AT1-transfected HEK-293 cells", "assay_type": "cell-based, human", "conditions": "10 nM AngII, Fura-2/AM fluorescence"}, "[4]": {"system": "mutant AT1 receptor containing the IC2 of the BKB2R", "conditions": "HEK-293 cells, ref [10]; cited from earlier work"}, "[5]": {"system": "NFκB p65 (Ser536) phosphorylation by AngII", "assay": "NFκB p65 phosphorylation", "assay_type": "cell-based, human", "conditions": "10 nM AngII, 5 min"}, "[6]": {"system": "Akt/PKB (Ser473) phosphorylation by AngII via endogenous AT1 receptor", "assay": "Akt/PKB phosphorylation", "assay_type": "cell-based, human", "conditions": "10 nM AngII, 5 min"}, "[7]": {"system": "ERK1/2 activation by AngII", "assay": "ERK1/2 phosphorylation", "assay_type": "cell-based, human", "conditions": "10 μM peptide; 10 nM AngII, 5 min; western blot; average of three gels"}, "[8]": {"system": "bradykinin B2 receptor", "conditions": "bradykinin B2 receptor cDNA transfected cells; ref [10]; cited from earlier work"}}, "data": [{"substance": "Angiotensin II (DRVYIHPF; Angiotensin-2; UniProt P01019 25-32, looked up) [AngII]", "values": [{"measurement": "Akt phosphorylation (in words)", "setting": "[1]", "value": "increases Akt phosphorylation"}, {"measurement": "PI turnover induced by AngII (in words)", "setting": "[2]; 10 nM AngII, 30 min at 37°C, no peptide", "value": "induced a marked PI turnover"}, {"measurement": "calcium influx caused by AngII (in words)", "setting": "[3]; no peptide", "value": "strong calcium influx"}, {"measurement": "pAkt (in words)", "setting": "[4]", "value": "decreased pAkt"}, {"measurement": "Ser536 phosphorylation of p65 by AngII (in words)", "setting": "[5]; no peptide", "value": "clearly enhanced"}, {"measurement": "activation of Akt/PKB by AngII (in words)", "setting": "[6]; no peptide", "value": "sizable activation of Akt/PKB"}]}, {"substance": "GRKKRRQRRRPPQGGVHPMKSRLRRT [AT1 IC2 peptide]", "values": [{"measurement": "effect on ERK1/2 activation by AngII (in words)", "setting": "[7]", "value": "no effect"}]}, {"substance": "GRKKRRQRRRPPQGGVKTMSMGRMRG [control peptide]", "values": [{"measurement": "effect on ERK1/2 activation by AngII (in words)", "setting": "[7]", "value": "neither the control peptide nor the IC2 peptide at 10 μM affected the activation of this MAP kinase by AngII"}, {"measurement": "effect on AngII induced PI turnover (in words)", "setting": "[2]; 10 μM peptide, 30 min before 10 nM AngII", "value": "unhindered"}, {"measurement": "effect on AngII promoted Ca2+ entry (in words)", "setting": "[3]; 10 μM peptide", "value": "no effect"}, {"measurement": "effect on AngII dependent NFκB activation / p65 phosphorylation (in words)", "setting": "[5]; 10 μM peptide", "value": "no inhibitory effect"}, {"measurement": "effect on AngII induced Akt phosphorylation (in words)", "setting": "[6]; 10 μM peptide", "value": "no effect"}]}, {"substance": "bradykinin", "values": [{"measurement": "Akt phosphorylation (in words)", "setting": "[8]", "value": "decreases it"}]}]}
